Laboratory results from patent US20060057154A1, “Compositions for inducing of immunotolerance” (Universiteit Utrecht Holding B.V., priority 2003, published 2006).

Experiments:
[1] = tested on: OVA-sensitized BALB/c mice; test: Airway responsiveness to methacholine in vivo (whole-body plethysmography, Penh) in mouse model of allergic asthma; parameters: species or system mouse (BALB/c)
Procedure: (§1) Animals. Animal care and use were performed in accordance with the guidelines of the Dutch Committee of Animal Experiments. Specific pathogen-free male BALB/c mice (5 to 6 weeks old) were purchased from Charles River (Maastricht, The Netherlands) and housed in macrolon cages in a laminar flow cabinet and provided with food and water ad libitum.
Sensitization, treatment and challenge. Mice (6 to 8 weeks old) were sensitized intraperitoneally (i.p.) on days 0 and 7 with 10 μg ovalbumin (OVA, grade V, Sigma-Aldrich) in 0.1 ml alum (Pierce, Rockford, Ill.). Two weeks after the last sensitization, the mice were divided into six groups. The sham-immunotherapy and the OVA-immunotherapy groups were treated with three s.c. injections of, respectively, 0.2 ml pyrogen-free saline (B. Braun, Melsungen, Germany) or 1 mg OVA in 0.2 ml pyrogen-free saline on alternate days. In three groups, OVA-immunotherapy was co-injected with 0.1 μg, 0.03 μg or 0.01 μg 1α,25-dihydroxyvitamin D3 (1α,25(OH)2 VitD3), a selective inhibitor of NF-κb. […]
Measurement of airway responsiveness in vivo. Airway responsiveness to methacholine was measured after treatment but before OVA challenge (pre-measurement) and 24 hours after the last OVA challenge. Airway responsiveness was measured in conscious, unrestrained mice using barometric whole-body plethysmography by recording respiratory pressure curves (Buxco, EMKA Technologies, Paris, France) in response to inhaled methacholine (acetyl-β-methylcholine chloride, Sigma-Aldrich). […] Briefly, mice were placed in a whole-body chamber and basal readings were determined for three minutes. Aerosolized saline, followed by doubling concentrations of methacholine (ranging from 3.13-25 mg/ml in saline), were nebulized for three minutes, and readings were determined for three minutes after each nebulization.
Statistical analysis. All data are expressed as mean±standard error of mean (SEM). The airway dose-response curves to methacholine were statistically analyzed by a general linear model of repeated measurements followed by post-hoc comparison between groups. […]

[2] = tested on: OVA-sensitized BALB/c mice; test: OVA-specific IgE levels in serum (sandwich ELISA) in mouse model of allergic asthma; format: in vivo, mouse (BALB/c)
Procedure: as §1
(§2) Sensitization, treatment and challenge. Mice (6 to 8 weeks old) were sensitized intraperitoneally (i.p.) on days 0 and 7 with 10 μg ovalbumin (OVA, grade V, Sigma-Aldrich) in 0.1 ml alum (Pierce, Rockford, Ill.). Two weeks after the last sensitization, the mice were divided into six groups. The sham-immunotherapy and the OVA-immunotherapy groups were treated with three s.c. injections of, respectively, 0.2 ml pyrogen-free saline (B. Braun, Melsungen, Germany) or 1 mg OVA in 0.2 ml pyrogen-free saline on alternate days. In three groups, OVA-immunotherapy was co-injected with 0.1 μg, 0.03 μg or 0.01 μg 1α,25-dihydroxyvitamin D3 (1α,25(OH)2 VitD3), a selective inhibitor of NF-κb. One group was treated with sham-immunotherapy and combined with co-injection of 0.1 μg 1α,25(OH)2 VitD3. Ten days after treatment, mice were exposed to three OVA inhalation challenges (10 mg/ml in saline) for 20 minutes every third day.
Determination of OVA-specific IgE levels in serum. From each mouse, serum was obtained after treatment but before OVA challenge (pre-measurement) by a small incision in the tail vein. After measurement of airway responsiveness in vivo, mice were sacrificed by i.p. injection of 1 ml 10% urethane in saline and were bled by cardiac puncture. […] Serum levels of OVA-specific IgE were measured by sandwich ELISA as described previously (Deurloo et al., 2001).
Statistical analysis. All data are expressed as mean±standard error of mean (SEM). The airway dose-response curves to methacholine were statistically analyzed by a general linear model of repeated measurements followed by post-hoc comparison between groups. […] All other data were analyzed using a Student's t test (2-tailed, homosedastic). […]

[3] = tested on: OVA-sensitized BALB/c mice; test: Cellular composition of bronchoalveolar lavage fluid (eosinophil number) in mouse model of allergic asthma; format: in vivo, mouse (BALB/c)
Procedure: as §1, §2
In a second series of experiments, OVA-immunotherapy, as described above, was carried out using a sub-optimal amount of 100 μg OVA in saline for OVA-immunotherapy. OVA-immunotherapy was either given alone or in combination with 0.01 μg 1α,25(OH)2 VitD3. Sham-immunotherapy alone or in combination with 0.01 μg 1α,25(OH)2 VitD3 served as control groups.
Analysis of the cellular composition of the bronchoalveolar lavage fluid. Bronchoalveolar lavage (BAL) was performed immediately after bleeding of the mice by lavage of the airways through a tracheal cannule five times with 1 ml saline (37° C.). Cells in the BALF were centrifuged and resuspended in cold PBS. The total number of cells in the BAL was determined using a Bürker-Türk counting chamber (Karl Hecht Assistant KG, Sondheim/Röhm, Germany). For differential BAL cell counts, cytospin preparations were made (15×g, five minutes, 4° C., Kendro Heraues Instruments, Asheville, N.C.). Next, cells were fixed and stained with Diff-Quick (Dade A. G., Düdingen, Switzerland). Per cytospin, 200 cells were counted and differentiated into mononuclear cells, eosinophils, and neutrophils by standard morphology and staining characteristics.
Statistical analysis. All data are expressed as mean±standard error of mean (SEM). The airway dose-response curves to methacholine were statistically analyzed by a general linear model of repeated measurements followed by post-hoc comparison between groups. Data were log transformed before analysis to equalize variances in all groups. All other data were analyzed using a Student's t test (2-tailed, homosedastic). Results were considered statistically significant at the p<0.05 level.

[4] = co-injection of 0.01 μg with OVA-immunotherapy (1 mg OVA), compared to OVA-immunotherapy alone

Compound	AHR to methacholine after OVA inhalation challenge ([1]; co-injection of 0.1 μg with sham-immunotherapy (saline))	AHR to methacholine after OVA inhalation challenge ([1]; co-injection s.c. of 0.1, 0.03 or 0.01 μg (all doses used) with OVA-immunotherapy (1 mg OVA), compared to OVA-IT alone, P<0.05)	Serum levels of OVA-specific IgE after OVA inhalation challenge [2, 4]	Serum levels of OVA-specific IgE after OVA inhalation challenge ([2]; co-injection of 0.1 μg with sham-immunotherapy, compared to sham-immunotherapy alone)	Number of BALF eosinophils after OVA inhalation challenge [3, 4]	Number of BALF eosinophils after OVA inhalation challenge ([3]; first series, co-injection of 0.1 μg with sham-immunotherapy)	Number of BALF eosinophils after OVA inhalation challenge ([3]; second series, co-injection of 0.01 μg with sham-immunotherapy)	Number of BALF eosinophils after OVA inhalation challenge ([3]; second series, co-injection of 0.01 μg with sub-optimal OVA-immunotherapy (100 μg OVA), compared to OVA-immunotherapy alone)	AHR to methacholine after OVA inhalation challenge ([1]; OVA-immunotherapy alone (3 s.c. injections of 1 mg OVA), compared to sham-treated mice, P<0.05)	Serum levels of OVA-specific IgE after OVA inhalation challenge ([2]; OVA-immunotherapy alone (1 mg OVA), compared to sham-treated OVA-challenged mice)	Number of BALF eosinophils after OVA inhalation challenge ([3]; OVA-immunotherapy alone (1 mg OVA), compared to sham-treated mice)	Number of BALF eosinophils after OVA inhalation challenge ([3]; second series, sub-optimal OVA-immunotherapy alone (100 μg OVA), compared to sham-treated mice)
C=C1/C(=C\C=C2/CCC[C@]3(C)[C@@H]([C@H](C)CCCC(C)(C)O)CC[C@@H]23)C[C@@H](O)C[C@@H]1O [1α,25(OH)2 VitD3, 1α,25-dihydroxyvitamin D3]	did not affect AHR	significantly potentiated the reduction of AHR to methacholine	significantly increased the reduction of serum IgE levels	did not affect serum IgE levels	significantly increased the reduction of BALF eosinophil numbers	did not significantly affect BAL eosinophil number	did not significantly affect BAL eosinophil number	significantly increased the reduction of BALF eosinophil numbers	–	–	–	–
OVA-immunotherapy: three s.c. injections of 1 mg (or sub-optimal 100 μg) ovalbumin (OVA, grade V) in pyrogen-free saline on alternate days	–	–	–	–	–	–	–	–	partially reduced	significantly reduced	significantly reduced	significantly reduced
